The values below come from patent EP4752152A1, “STEROID COMPOUND, AND PREPARATION METHOD THEREFOR AND USE THEREOF” (Cholesgen (Shanghai) Co.Ltd., priority 2023, dated 2025).

The first test deals with SREBP pathway. The test can be described thus: SREBP luciferase reporter gene system (SRE-luciferase assay). Type of test: cell-based, human. Particulars: Homo sapiens, Huh-7, 16 h, Huh-7/SRE-luc cells, sterol-deficient medium, 0.01-10 µM. The essentials:
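Readout was SRE-driven luciferase normalised to GFP fluorescence in lysates of stably transfected Huh-7/SRE-luc hepatoma cells. Compounds (0.01, 0.03, 0.1, 0.3, 1.0, 3.0, 10 µM; DMSO control) were applied for 16 h in sterol-depleted medium with 2 µM lovastatin and 10 µM mevalonate; IC50 from variable-slope fit.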
In general terms: In a reporter assay the amount or activity of a reporter protein is the signal.
As for `C[C@H](CCCC(O)c1nnnn1C)[C@H]1CC[C@H]2[C@H]3[C@H](CC[C@]12C)[C@@]1(C)CC[C@H](O)[C@H](O)[C@@H]1CC3(F)F` (stereo partly drawn) [Compound 384, (1R,3aS,3bS,5aR,6R,7 S,9aR,9bS,11aR)-4,4-Difluoro-1-[(2R)-6-hydroxy-6-(1-methyl-1,2,3,4-tetrazol-5-yl)hexan-2-yl]-9a,11a-dimethylhexadecahydro-1H-cyclopenta[1,2-a]phenanthrene-6,7-diol], the IC50 came to 0.185 µM.
Take `COc1nc(F)ccc1C(C)(O)CCC[C@@H](C)[C@H]1CC[C@H]2[C@H]3[C@H](CC[C@]12C)[C@@]1(C)CC[C@H](O)[C@H](O)[C@@H]1CC3(F)F` (stereo partly drawn) [Compound 308, (1R,3aS,3bS,5aR,6R,7S,9aR,9bS,11aR)-4,4-difluoro-1-[(2R)-6-(6-fluoro-2-methoxypyridin-3-yl)-6-hydroxyheptan-2-yl]-9a,11a-dimethylhexadecahydro-1H-cyclopenta[1,2-a]phenanthrene-6,7-diol]: the IC50 came out at 0.112 µM.
Still for that read-out and setting: for `COc1ccnc(F)c1[C@@H](O)CCC[C@@H](C)[C@H]1CC[C@H]2[C@H]3[C@H](CC[C@]12C)[C@@]1(C)CC[C@H](O)[C@H](O)[C@@H]1CC3(F)F` (single isomer, unassigned) [Compound 229] the value was 0.049 µM.
Same read-out and setting: the figure for `C[C@H](CCCC(O)c1cccc2cn[nH]c12)[C@H]1CC[C@H]2C3=C(F)C[C@H]4[C@@H](O)[C@@H](O)CC[C@]4(C)[C@H]3CC[C@]12C` (stereo partly drawn) [Compound 270, (1R,3aR,5aR,6R,7S,9aR,9bR,11aR)-4-fluoro-1-[(2R)-6-hydroxy-6-(1H-indazol-7-yl)hexan-2-yl]-9a,11a-dimethyl-2,3,3a,5,5a,6,7,8,9,9a,9b,10,11,11a-tetradecahydro-1H-cyclopenta[1,2-a]phenanthrene-6,7-diol] is 0.259 µM.
The same measure, in the same setting: the figure for `COc1c(C(O)CCC[C@@H](C)[C@H]2CC[C@H]3[C@H]4[C@H](CC[C@]23C)[C@@]2(C)CC[C@H](O)[C@H](O)[C@@H]2CC4(F)F)ccc[n+]1[O-]` (stereo partly drawn) [Compound 267, 3-[(5R)-5-[(1R,3aS,3bS,5aR,6R,7S,9aR,9bS,11aR)-4,4-difluoro-6,7-dihydroxy-9a,11a-dimethylhexadecahydro-1H-cyclopenta[1,2-a]phenanthren-1-yl]-1-hydroxyhexyl]-2-methoxypyridine-1-oxide] is 0.424 µM; for `COc1ccc(F)c(C(O)CCC[C@@H](C)[C@H]2CC[C@H]3C4=C(F)C[C@H]5[C@@H](O)[C@@H](O)CC[C@]5(C)[C@H]4CC[C@]23C)c1` (stereo partly drawn) [Compound 174, (1R,3aR,5aR,6R,7S,9aR,9bR,11aR)-4-fluoro-1-[(2R)-6-(2-fluoro-5-methoxyphenyl)-6-hydroxyhexan-2-yl]-9a,11a-dimethyl-2,3,3a,5,5a,6,7,8,9,9a,9b,10,11,11a-tetradecahydro-1H-cyclopenta[1,2-a]phenanthrene-6,7-diol] it is 0.148 µM.
In the case of `COc1nc(F)cc(F)c1[C@H](O)CCC[C@@H](C)[C@H]1CC[C@H]2[C@H]3[C@H](CC[C@]12C)[C@@]1(C)CC[C@H](O)[C@H](O)[C@@H]1CC3(F)F` (single isomer, unassigned) [Compound 256], the IC50 was 0.099 µM.
For the compound `COc1ccnc(C[C@@H](O)CCC[C@@H](C)[C@H]2CC[C@H]3[C@H]4[C@H](CC[C@]23C)[C@@]2(C)CC[C@H](O)[C@H](O)[C@@H]2CC4(F)F)c1` (stereo in doubt) [Compound 304, (1R,3aS,3bS,5aR,6R,7S,9aR,9bS,11aR)-4,4-difluoro-1-[(2R,6S)-6-hydroxy-7-(4-methoxypyridin-2-yl)heptan-2-yl]-9a,11a-dimethylhexadecahydro-1H-cyclopenta[1,2-a]phenanthrene-6,7-diol], the IC50 came to 0.243 µM.
For `COc1cccc(OC)c1C(O)CCC[C@@H](C)[C@H]1CC[C@H]2[C@H]3[C@H](CC[C@]12C)[C@@]1(C)CC[C@H](O)[C@H](O)[C@@H]1CC3(F)F` (stereo partly drawn) [Compound 116, (1R,3aS,3bS,5aR,6R,7S,9aR,9bS,11aR)-1-[(2R)-6-(2,6-dimethoxyphenyl)-6-hydroxyhexan-2-yl]-4,4-difluoro-9a,11a-dimethylhexadecahydro-1H-cyclopenta[1,2-a]phenanthrene-6,7-diol], the IC50 worked out at 0.177 µM.
In the case of `C[C@H](CCCC(O)c1cnc2c(c1)OC(F)(F)O2)[C@H]1CC[C@H]2[C@H]3[C@H](CC[C@]12C)[C@@]1(C)CC[C@H](O)[C@H](O)[C@@H]1CC3(F)F` (single isomer, unassigned) [Compound 285], the IC50 amounted to 0.253 µM.
Regarding `COc1ccc(C(O)CCC[C@@H](C)[C@H]2CC[C@H]3[C@H]4[C@H](CC[C@]23C)[C@@]2(C)CC[C@H](O)[C@H](O)[C@@H]2CC4(F)F)c(OC)c1` (stereo partly drawn) [Compound 183, (1R,3aS,3bS,5aR,6R,7 S,9aR,9bS,11aR)-1-[(2R)-6-(2,4-Dimethoxyphenyl)-6-hydroxyhexan-2-yl]-4,4-difluoro-9a,11a-dimethylhexadecahydro-1H-cyclopenta[1,2-a]phenanthrene-6,7-diol], the IC50 turned out to be 0.141 µM.
On the same count and under the same terms, for `C[C@H](CCCC(O)c1cccc(F)c1)[C@H]1CC[C@H]2C3=C(F)C[C@H]4[C@@H](O)[C@@H](O)CC[C@]4(C)[C@H]3CC[C@]12C` (stereo partly drawn) [Compound 45, (1R,3aR,5aR,6R,7S,9aR,9bR,11aR)-4-fluoro-1-[(2R)-6-(3-fluorophenyl)-6-hydroxyhexan-2-yl]-9a,11a-dimethyl-2,3,3a,5,5a,6,7,8,9,9a,9b,10,11,11a-tetradecahydro-1H-cyclopenta[1,2-a]phenanthrene-6,7-diol] the value was 0.198 µM.
Still for that read-out and setting: the figure for `C[C@H](CCCC(O)c1c(F)ccnc1F)[C@H]1CC[C@H]2[C@H]3[C@H](CC[C@]12C)[C@@]1(C)CC[C@H](O)[C@H](O)[C@@H]1CC3(F)F` (stereo partly drawn) [Compound 146, (1R,3aS,3bS,5aR,6R,7S,9aR,9bS,11aR)-1-[(2R)-6-(2,4-difluoropyridin-3-yl)-6-hydroxyhexan-2-yl]-4,4-difluoro-9a,11a-dimethylhexadecahydro-1H-cyclopenta[1,2-a]phenanthrene-6,7-diol] is 0.16 µM.
In the case of `COc1ccnc(F)c1C(O)CCC[C@@H](C)[C@H]1CC[C@H]2[C@H]3[C@H](CC[C@]12C)[C@@]1(C)CC[C@H](O)[C@H](O)[C@@H]1CC3(F)F` (stereo partly drawn) [Compound 149, (1R,3aS,3bS,5aR,6R,7S,9aR,9bS,11aR)-4,4-difluoro-1-[(2R)-6-(2-fluoro-4-methoxypyridin-3-yl)-6-hydroxyhexan-2-yl]-9a,11a-dimethylhexadecahydro-1H-cyclopenta[1,2-a]phenanthrene-6,7-diol], the IC50 was 0.14 µM.
Turning to `COc1ccc(C(O)CCC[C@@H](C)[C@H]2CC[C@H]3C4=C(F)C[C@H]5[C@@H](O)[C@@H](O)CC[C@]5(C)[C@H]4CC[C@]23C)cc1` (stereo partly drawn) [Compound 51, (1R,3aR,5aR,6R,7S,9aR,9bR,11aR)-4-fluoro-1-[(2R)-6-hydroxy-6-(4-methoxyphenyl)hexan-2-yl]-9a,11a-dimethyl-2,3,3a,5,5a,6,7,8,9,9a,9b,10,11,11a-tetradecahydro-1H-cyclopenta[1,2-a]phenanthrene-6,7-diol], the IC50 was determined as 0.212 µM.
As for `C[C@H](CCCC(O)c1nccs1)[C@H]1CC[C@H]2C3=C(F)C[C@H]4[C@@H](O)[C@@H](O)CC[C@]4(C)[C@H]3CC[C@]12C` (stereo partly drawn) [Compound 90, (1R,3aR,5aR,6R,7S,9aR,9bR,11aR)-4-fluoro-1-[(2R)-6-hydroxy-6-(1,3-thiazol-2-yl)hexan-2-yl]-9a,11a-dimethyl-2,3,3a,5,5a,6,7,8,9,9a,9b,10,11,11a-tetradecahydro-1H-cyclopenta[1,2-a]phenanthrene-6,7-diol], the IC50 was found to be 0.379 µM.

The same test, now with this note: Huh-7/SRE-luc cells, sterol-deficient medium, 16 hours, 0.01-10 µM.
Regarding `COc1nc(C)ccc1C(O)CCC[C@@H](C)[C@H]1CC[C@H]2[C@H]3[C@H](CC[C@]12C)[C@@]1(C)CC[C@H](O)[C@H](O)[C@@H]1CC3(F)F` (single isomer, unassigned) [Compound 218, (1R,3aS,3bS,5aR,6R,7S,9aR,9bS,11aR)-4,4-difluoro-1-[(2R,6R)-6-hydroxy-6-(2-methoxy-6-methylpyridin-3-yl)hexan-2-yl]-9a,11a-dimethylhexadecahydro-1H-cyclopenta[1,2-a]phenanthrene-6,7-diol or (1R,3aS,3bS,5aR,6R,7S,9aR,9bS,11aR)-4,4-difluoro-1-[(2R,6S)-6-hydroxy-6-(2-methoxy-6-methylpyridin-3-yl)hexan-2-yl]-9a,11a-dimethylhexadecahydro-1H-cyclopenta[1,2-a]phenanthrene-6,7-diol], the IC50 was 0.141 µM.
`C[C@H](CCCC(O)c1cccc2nnn(C)c12)[C@H]1CC[C@H]2[C@H]3[C@H](CC[C@]12C)[C@@]1(C)CC[C@H](O)[C@H](O)[C@@H]1CC3(F)F` (single isomer, unassigned) [Compound 278, (1R,3aS,3bS,5aR,6R,7S,9aR,9bS,11aR)-4,4-difluoro-1-[(2R,6R)-6-hydroxy-6-(3-methylbenzo[d][1,2,3]triazol-4-yl)hexan-2-yl]-9a,11a-dimethylhexadecahydro-1H-cyclopenta[1,2-a]phenanthrene-6,7-diol or (1R,3aS,3bS,5aR,6R,7S,9aR,9bS,11aR)-4,4-Difluoro-1-[(2R,6S)-6-hydroxy-6-(3-methylbenzo[d][1,2,3]triazol-4-yl)hexan-2-yl]-9a,11a-dimethylhexadecahydro-1H-cyclopenta[1,2-a]phenanthrene-6,7-diol]: the IC50 turned out to be 0.189 µM.
Take `COc1cc(F)cc(OC)c1C(O)CCC[C@@H](C)[C@H]1CC[C@H]2[C@H]3[C@H](CC[C@]12C)[C@@]1(C)CC[C@H](O)[C@H](O)[C@@H]1CC3(F)F` (single isomer, unassigned) [Compound 225, (1R,3aS,3bS,5aR,6R,7S,9aR,9bS,11aR)-4,4-difluoro-1-[(2R,6R)-6-(4-fluoro-2,6-dimethoxyphenyl)-6-hydroxyhexan-2-yl]-9a,11a-dimethylhexadecahydro-1H-cyclopenta[1,2-a]phenanthrene-6,7-diol or (1R,3aS,3bS,5aR,6R,7S,9aR,9bS,11aR)-4,4-difluoro-1-[(2R,6S)-6-(4-fluoro-2,6-dimethoxyphenyl)-6-hydroxyhexan-2-yl]-9a,11a-dimethylhexadecahydro-1H-cyclopenta[1,2-a]phenanthrene-6,7-diol]: the 50% inhibitory concentration (IC50) came to 0.175 µM.

The term IC50 denotes the concentration at which inhibition is half-maximal.
